The results in this text go back to ChEMBL document CHEMBL1122767, “Synthesis, resolution, absolute stereochemistry, and enantioselectivity of 3',4'-dihydroxynomifensine” (J Med Chem, 1984).

In one test the target is D(2) dopamine receptor (Rattus norvegicus, UniProt P61169). Description: Concentration that produces 50 % displacement of specific [3H]spiroperidol binding to rat caudate membrane preparations.
A short description of test [1]: Concentration that produces 50 % displacement of specific [3H]clonidine binding to Alpha adrenergic receptor in rat brain cortical membrane preparations. The test is classed as cell membranes.
Test [2] addresses T1, cyclic AMP phosphoprotein (Rattus norvegicus, UniProt Q712U5).
T1 sequence (Q712U5 whole entry): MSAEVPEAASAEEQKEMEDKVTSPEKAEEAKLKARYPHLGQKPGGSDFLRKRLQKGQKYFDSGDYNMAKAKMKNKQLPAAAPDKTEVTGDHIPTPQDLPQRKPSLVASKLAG
Description: Effective concentration that gives maximal stimulation of cyclic AMP production over the concentration range tested; b=Inactive. The test is classed as functional.

Chain of D(2) dopamine receptor (P61169 whole entry): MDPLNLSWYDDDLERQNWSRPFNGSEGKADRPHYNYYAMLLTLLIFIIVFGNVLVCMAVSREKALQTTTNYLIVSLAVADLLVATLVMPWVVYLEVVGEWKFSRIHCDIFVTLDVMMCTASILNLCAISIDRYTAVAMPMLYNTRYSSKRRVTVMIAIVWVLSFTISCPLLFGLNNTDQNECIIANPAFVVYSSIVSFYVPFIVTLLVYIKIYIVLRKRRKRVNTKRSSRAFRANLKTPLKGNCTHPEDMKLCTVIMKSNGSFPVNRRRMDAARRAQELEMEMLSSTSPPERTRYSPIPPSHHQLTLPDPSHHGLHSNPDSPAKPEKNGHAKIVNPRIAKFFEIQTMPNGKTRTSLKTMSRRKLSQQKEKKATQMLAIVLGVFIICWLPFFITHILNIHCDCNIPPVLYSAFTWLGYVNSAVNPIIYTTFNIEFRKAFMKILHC

One may read the IC50 as the concentration needed to halve the response being measured. Read a low IC50 as greater potency. For `CN1Cc2c(N)cccc2C(c2ccc(O)c(O)c2)C1` (stereo not drawn), the half-inhibitory concentration (IC50) at D(2) dopamine receptor came out at 92 µM; in test [1] it was 1.39 µM.

For the compound `CN1Cc2c(N)cccc2[C@H](c2ccc(O)c(O)c2)C1`, the half-inhibitory concentration (IC50) at D(2) dopamine receptor came out at 85.8 µM; in test [1] it was 0.6 µM.

Regarding `CN1Cc2c(N)cccc2[C@@H](c2ccc(O)c(O)c2)C1`, the IC50 is 99.1 µM on D(2) dopamine receptor and 27.7 µM in test [1]. Also, in test [2], the EC50 result is on record as “Not Active”.

The compound `NCCc1ccc(O)c(O)c1` [DOPAMINE] yielded a half-inhibitory concentration (IC50) in test [1] of 0.061 µM.
